In ChEMBL document CHEMBL1139519, “Are L-adenosine and its derivatives substrates for S-adenosyl-L-homocysteine hydrolase?” (J Med Chem, 2005):
Calls of active or inactive are those of the source. No cut-off for these calls is given here.

Columns and labels:
[1] = molecular target: T1, Adenosylhomocysteinase (Homo sapiens, UniProt P23526)
Target sequence in this assay (P23526 2-432 limits assumed): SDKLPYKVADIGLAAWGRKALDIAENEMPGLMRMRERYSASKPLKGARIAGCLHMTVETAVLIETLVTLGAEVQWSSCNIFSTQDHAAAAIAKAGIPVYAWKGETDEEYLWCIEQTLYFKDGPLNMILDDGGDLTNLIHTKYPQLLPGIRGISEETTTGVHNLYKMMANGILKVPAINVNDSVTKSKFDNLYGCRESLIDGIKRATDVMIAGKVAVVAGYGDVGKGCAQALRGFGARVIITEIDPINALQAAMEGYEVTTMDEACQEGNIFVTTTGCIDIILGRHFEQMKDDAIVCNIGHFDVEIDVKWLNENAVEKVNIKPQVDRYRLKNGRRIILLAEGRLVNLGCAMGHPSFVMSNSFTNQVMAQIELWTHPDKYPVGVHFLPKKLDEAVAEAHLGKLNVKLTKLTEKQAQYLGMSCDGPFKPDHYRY
Description: Inhibitory potency against recombinant human placental S-Adenosyl-L-homocysteine Hydrolase at 200 uM

[2] = molecular target: T1, Adenosylhomocysteinase; test: Inhibitory potency against recombinant human placental S-Adenosyl-L-homocysteine Hydrolase
Target sequence in this assay (P23526 whole entry): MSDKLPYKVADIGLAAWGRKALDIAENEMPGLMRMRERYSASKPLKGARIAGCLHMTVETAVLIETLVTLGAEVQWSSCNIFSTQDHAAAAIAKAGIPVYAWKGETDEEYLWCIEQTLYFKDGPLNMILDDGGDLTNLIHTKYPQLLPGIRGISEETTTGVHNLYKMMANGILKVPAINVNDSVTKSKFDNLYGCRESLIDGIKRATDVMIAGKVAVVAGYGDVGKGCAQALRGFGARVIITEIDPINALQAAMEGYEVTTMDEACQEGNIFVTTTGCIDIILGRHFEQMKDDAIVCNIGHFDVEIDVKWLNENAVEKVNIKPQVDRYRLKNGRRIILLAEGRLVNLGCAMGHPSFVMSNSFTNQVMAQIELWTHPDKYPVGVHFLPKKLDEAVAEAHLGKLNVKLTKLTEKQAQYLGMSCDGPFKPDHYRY

[3] = molecular target: T1, Adenosylhomocysteinase; remark: listed apart in the source
Target sequence in this assay (P23526 2-432 limits assumed): as the sequence (P23526 2-432 limits assumed) above
Description: Inactivation constant against recombinant human placental S-Adenosyl-L-homocysteine Hydrolase

Structure (SMILES)	Inhibitory potency [1]	Ki [2] [nM]	Kinact [3] [min⁻¹]
Nc1ncnc2c1ncn2C1O[C@H](CO)[C@@H](O)[C@H]1O (single isomer, unassigned)	inactive	–	–
Nc1ncnc2c1ncn2[C@H]1OC(/C=N/O)C(O)[C@@H]1O (single isomer, unassigned)	inactive	670	0.16
